Consider 27 molecules from ChEMBL document CHEMBL1136034, “Selective urokinase-type plasminogen activator (uPA) inhibitors. Part 1: 2-Pyridinylguanidines” (Bioorg Med Chem Lett, 2002).

In test [1] the target is T1, Plasminogen (Homo sapiens, UniProt P00747). The test is described as follows: Inhibition of human plasmin with Chromozym-PL at 1 mM.
In test [2] the target is T2, Tissue-type plasminogen activator (Homo sapiens, UniProt P00750). The experiment in a line: Inhibition of human tissue plasminogen activator stimulator at 1 mM.
Target sequence in this assay (P00750 36-562 limits assumed): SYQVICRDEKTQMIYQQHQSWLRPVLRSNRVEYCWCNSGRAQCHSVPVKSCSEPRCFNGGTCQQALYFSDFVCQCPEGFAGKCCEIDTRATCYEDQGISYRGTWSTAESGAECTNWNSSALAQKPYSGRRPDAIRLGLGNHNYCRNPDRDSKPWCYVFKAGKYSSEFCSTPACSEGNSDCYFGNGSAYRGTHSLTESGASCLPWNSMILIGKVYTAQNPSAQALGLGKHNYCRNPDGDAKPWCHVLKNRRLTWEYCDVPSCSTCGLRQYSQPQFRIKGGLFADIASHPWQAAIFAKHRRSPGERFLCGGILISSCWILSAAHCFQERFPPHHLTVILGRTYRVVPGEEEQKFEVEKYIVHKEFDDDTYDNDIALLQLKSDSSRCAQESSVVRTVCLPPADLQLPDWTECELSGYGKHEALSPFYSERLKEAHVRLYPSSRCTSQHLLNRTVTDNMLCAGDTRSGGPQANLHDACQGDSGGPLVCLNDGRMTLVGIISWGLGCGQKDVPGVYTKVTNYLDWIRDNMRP
For test [3], the target named is T1, Plasminogen. The experiment in a line: Ability to inhibit human plasmin using Chromozym-PL as substrate.
Test [4] deals with T2, Tissue-type plasminogen activator. The experiment in a line: Ability to inhibit human tissue plasminogen activator stimulator at concentration of 30 uM.
Target sequence in this assay (P00750 36-562 limits assumed): as above
Test [5] deals with T3, Urokinase-type plasminogen activator (Homo sapiens, UniProt P00749). The test is described as follows: Ability to inhibit microPa (calbiochem) and S-2444 (quadratech) as substrate at concentration of 30 uM.
Test [6] concerns the target T2, Tissue-type plasminogen activator. The test is described as follows: Ability to inhibit human tissue plasminogen activator stimulator at concentration of 1 uM.
Target sequence in this assay (P00750 36-562 limits assumed): as above
Test [7] concerns the target T3, Urokinase-type plasminogen activator. The test is described as follows: In vitro inhibition of HWMT human urokinase Plasminogen activator.
The target in test [8] is T1, Plasminogen. The experiment in a line: Ability to inhibit human plasmin using Chromozym-PL as substrate at concentration of 1 uM.
Test [9] addresses T3, Urokinase-type plasminogen activator. The test is described as follows: Ability to inhibit microPa (calbiochem) and S-2444 (quadratech) as substrate at concentration of 1 uM.
Test [10] has as its target T2, Tissue-type plasminogen activator. The test is described as follows: Ability to inhibit human tissue plasminogen activator stimulator at concentration of 1 mM.
Target sequence in this assay (P00750 36-562 limits assumed): as above
The target of test [11] is T1, Plasminogen. The experiment in a line: Ability to inhibit human plasmin using Chromozym-PL as substrate at concentration of 30 uM.
In test [12] the target is T2, Tissue-type plasminogen activator. The test is described as follows: Ability to inhibit human tissue plasminogen activator stimulator at concentration of 100 uM.
Target sequence in this assay (P00750 36-562 limits assumed): as above
For test [13], the target named is T3, Urokinase-type plasminogen activator. The experiment in a line: Ability to inhibit microPa (calbiochem) and S-2444 (quadratech) as substrate at concentration of 100 uM.
For test [14], the target named is T2, Tissue-type plasminogen activator. The test is described as follows: Ability to inhibit human tissue plasminogen activator stimulator.
Target sequence in this assay (P00750 whole entry): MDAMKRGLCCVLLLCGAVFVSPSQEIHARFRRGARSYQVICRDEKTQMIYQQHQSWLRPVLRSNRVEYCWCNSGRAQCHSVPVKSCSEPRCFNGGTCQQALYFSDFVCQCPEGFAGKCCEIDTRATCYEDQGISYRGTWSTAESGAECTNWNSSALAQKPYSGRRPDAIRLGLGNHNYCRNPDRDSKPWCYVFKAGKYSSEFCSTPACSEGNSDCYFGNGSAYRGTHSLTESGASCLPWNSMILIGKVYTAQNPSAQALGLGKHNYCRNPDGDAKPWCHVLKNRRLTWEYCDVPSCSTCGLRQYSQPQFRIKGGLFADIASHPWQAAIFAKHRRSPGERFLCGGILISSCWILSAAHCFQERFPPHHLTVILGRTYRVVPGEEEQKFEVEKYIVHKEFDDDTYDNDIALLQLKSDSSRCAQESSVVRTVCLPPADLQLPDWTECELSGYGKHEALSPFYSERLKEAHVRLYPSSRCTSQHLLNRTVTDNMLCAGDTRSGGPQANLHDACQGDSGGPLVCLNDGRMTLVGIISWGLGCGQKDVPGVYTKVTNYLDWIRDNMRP

T1 sequence (P00747 97-580 limits assumed): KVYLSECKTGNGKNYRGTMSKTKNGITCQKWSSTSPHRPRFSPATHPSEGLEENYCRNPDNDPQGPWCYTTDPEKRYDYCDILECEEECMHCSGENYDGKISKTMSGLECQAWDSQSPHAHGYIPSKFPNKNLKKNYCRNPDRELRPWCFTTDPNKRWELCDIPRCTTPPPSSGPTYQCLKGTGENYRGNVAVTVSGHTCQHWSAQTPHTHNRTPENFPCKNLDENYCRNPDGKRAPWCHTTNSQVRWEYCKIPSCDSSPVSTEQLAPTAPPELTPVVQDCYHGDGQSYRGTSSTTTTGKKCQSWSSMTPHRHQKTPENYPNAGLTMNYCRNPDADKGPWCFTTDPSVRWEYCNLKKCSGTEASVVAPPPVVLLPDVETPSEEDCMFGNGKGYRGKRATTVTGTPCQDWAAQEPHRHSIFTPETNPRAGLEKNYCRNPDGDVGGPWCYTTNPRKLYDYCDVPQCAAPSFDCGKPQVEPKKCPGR
T1 sequence (P00747 581-810 limits assumed): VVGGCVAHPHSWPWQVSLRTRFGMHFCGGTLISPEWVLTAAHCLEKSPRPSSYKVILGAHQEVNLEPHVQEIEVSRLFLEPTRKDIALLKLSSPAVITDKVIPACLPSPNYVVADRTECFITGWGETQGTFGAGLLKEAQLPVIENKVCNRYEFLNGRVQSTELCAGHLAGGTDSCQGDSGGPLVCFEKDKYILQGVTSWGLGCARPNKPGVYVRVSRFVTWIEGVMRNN

One may read the inhibition as the percentage by which the read-out fell short of the control. Higher therefore signals a strong effect. For the molecule `N=C(N)Nc1ncc(Cl)cc1Cl`, the inhibition in [1] and in test [2] was below 50% each time.
The Ki is the dissociation constant of the complex between target and ligand, obtained from inhibition or displacement. Read a high Ki as lower affinity. The molecule `N=C(N)Nc1ccncc1` registered a Ki in test [3] of 16.9 µM. The inhibition in test [4] and in test [5] was below 50% in each case.
Regarding `N=C(N)Nc1ccccn1`, the inhibition in test [6] and in test [8] was below 50% throughout. The affinity in test [7], expressed as Ki, was 29.5 µM.
Turning to `N=C(N)Nc1ncc(Br)cc1Cl`, the inhibition in test [1] and in test [2] was below 50% in each case.
As to `N=C(N)Nc1ccc(Cl)cn1`, the inhibition in test [1] and in test [2] was below 50% each time.
In test [7], `N=C(N)Nc1ccc(Br)cn1` showed an inhibition constant (Ki) of 3.13 µM. In addition, the inhibition in test [1] and in test [2] was below 50% each time.
Molecule `NC(N)=Nc1ncccc1O` registered an inhibitory constant (Ki) in test [7] of 147 µM.
Turning to `N=C(N)Nc1ncccc1O`, the inhibition in test [1] and in test [2] was below 50% throughout.
As to `N=C(N)Nc1ccncn1`, the inhibition in test [6], in [9] and in test [8] was below 50% throughout.
Take `Cc1ccnc(NC(=N)N)c1`: the inhibition in test [10] and in [1] was below 50% throughout. In [7], this molecule gave an inhibition constant (Ki) of 83.8 µM.
Turning to `Cc1cccc(N=C(N)N)n1`, the Ki in [7] turned out to be 173 µM. The inhibition in test [1] and in test [2] was below 50% each time.
The molecule `N=C(N)Nc1ncc(Cl)cc1Br` yielded an inhibition in test [1] below 50%.
For the molecule `N=C(N)Nc1cccnn1`, the inhibition in test [11], in [12] and in [13] was below 50% each time.
Take `N=C(N)Nc1ncccn1`: the inhibition in test [6] and in test [8] was below 50% each time. For the same molecule, the inhibitory constant (Ki) in [7] was 292 µM.
On to `NC(N)=Nc1ncc(Br)cc1Cl`, for which affinity in test [7] was put at a Ki of 2.9 µM.
In test [7], `Cc1ccc(NC(=N)N)nc1` gave an inhibition constant Ki of 32.3 µM. The inhibition in [2] was below 50%.
As to `N=C(N)Nc1ncc(C(F)(F)F)cc1Cl`, the inhibition in test [1] and in [2] was below 50% in each case.
For the molecule `COc1cccnc1N=C(N)N`, in test [3], the inhibitory constant (Ki) was below 232 µM. Further, the inhibition in test [2] is below 50%.
Take `NC(N)=Nc1ncc(Cl)cc1Cl`: in test [7], the affinity corresponds to a Ki of 5.47 µM.
With `N=C(N)Nc1cc(-c2ccccc2)ccn1`, the figures for the inhibition in test [1] and in test [2] were below 50% and 54%, respectively.
Take `N=C(N)Nc1cnccn1`: the inhibition in test [6], in [9] and in test [8] was below 50% in each case.
As for `COc1ccnc(NC(=N)N)c1`, the inhibition in test [1] and in [2] was below 50% throughout.
In the case of `NC(N)=Nc1ncc(Cl)cc1Br`, the affinity in test [14] corresponds to a Ki of 272 µM.
With `N=C(N)Nc1ccc(Cl)cc1`, the Ki in test [3] is below 50 µM. Besides, in [10], the inhibition is below 50%.
For the molecule `Cc1cccnc1N=C(N)N`, the inhibition in test [10] and in test [1] was below 50% each time. The same molecule displayed an inhibition constant Ki in test [7] of 37.7 µM.
For `Cc1c(Cl)cnc(N=C(N)N)c1Cl`, the Ki in test [3] worked out at 176 µM. The inhibition in test [2] was below 50%.
For the molecule `N=C(N)Nc1cccnc1`, the inhibition in test [6], in test [9] and in [8] was below 50% in each case.
